Our source for the IC50 values is patent publication US12172990B2 (Constellation Pharmaceuticals, Inc., priority 2018, dated 2024).

The target of test [1] is human TREX2 (residues M44-A279) (Homo sapiens (Human), UniProt Q9BQ50). The experiment in a line: TREX2 Biochemical Assay (fluorescence assay measuring degradation of dsDNA substrate). As to conditions: 2.5 nM TREX2, 60 nM dsDNA substrate, 25 minutes at room temperature. The method, boiled down:
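Final conditions: 2.5 nM His-Tev-tagged TREX2 (E. coli-expressed), 60 nM fluorophore/quencher-labelled dsDNA, 50 mM Tris pH 7.4, 150 mM NaCl, 100 mM MgCl2, 1% DMSO; 10-point compound dose-response. Incubated 25 min at room temperature, then EDTA-quenched; fluorescence read at ex 570/em 615 nm. IC50 from four-parameter fit against pre-quenched and no-inhibitor controls.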

Test [2] concerns the target full length human TREX1 (Homo sapiens (Human), UniProt Q9NSU2). The experiment in a line: TREX1 Biochemical Assay (fluorescence assay measuring degradation of dsDNA substrate). As to conditions: 150 pM TREX1, 60 nM dsDNA substrate, 25 minutes at room temperature. The method in brief:
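His-Tev-tagged full-length human TREX1 expressed in E. coli, 150 pM final, with 60 nM TEX615/quencher-labelled 9-mer dsDNA in Tris pH 7.4, NaCl, DTT, BSA, Tween-20, MgCl2 and 1.0% DMSO; 25 min at room temperature, EDTA-quenched. Fluorescence 615 nm (excitation 570 nm); 10-point IC50 by four-parameter fit against pre-quenched and no-inhibitor controls.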

full length human TREX1, sequence (Q9NSU2 whole entry): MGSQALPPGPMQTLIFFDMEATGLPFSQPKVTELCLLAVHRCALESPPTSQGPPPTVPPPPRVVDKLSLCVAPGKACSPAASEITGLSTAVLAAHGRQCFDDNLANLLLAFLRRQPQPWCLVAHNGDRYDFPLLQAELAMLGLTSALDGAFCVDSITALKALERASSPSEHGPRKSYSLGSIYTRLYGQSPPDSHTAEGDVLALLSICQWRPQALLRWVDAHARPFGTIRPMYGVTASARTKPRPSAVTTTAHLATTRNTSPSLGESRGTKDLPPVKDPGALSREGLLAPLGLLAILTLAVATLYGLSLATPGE
human TREX2 (residues M44-A279), sequence (Q9BQ50 whole entry, the tested form may be a part): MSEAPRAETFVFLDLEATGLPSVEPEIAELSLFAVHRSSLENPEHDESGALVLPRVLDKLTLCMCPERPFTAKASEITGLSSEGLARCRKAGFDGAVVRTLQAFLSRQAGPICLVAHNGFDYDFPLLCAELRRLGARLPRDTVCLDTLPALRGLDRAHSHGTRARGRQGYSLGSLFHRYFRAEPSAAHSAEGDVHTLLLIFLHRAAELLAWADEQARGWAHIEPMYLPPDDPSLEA

Consider `Cn1c(N2CCC[C@H](c3ccccn3)C2)nc(C(=O)Nc2cnoc2)c(O)c1=O` [Example 101, (S)-5-hydroxy-N-(isoxazol-4-yl)-1-methyl-6-oxo-2-(3-(pyridin-2-yl)piperidin-1-yl)-1,6-dihydropyrimidine-4-carboxamide], for which the IC50 lay within 10000 to 100000 nM in test [1] and 100 to 1000 nM in test [2].
For `Cn1c(N2CCC[C@@H]2c2cccnc2)nc(C(=O)Nc2cnoc2)c(O)c1=O` [Example 102, (R)-5-hydroxy-N-(isoxazol-4-yl)-1-methyl-6-oxo-2-(2-(pyridin-3-yl)pyrrolidin-1-yl)-1,6-dihydropyrimidine-4-carboxamide] the same measures were 10000 to 100000 nM and 100 to 1000 nM.
For `Cn1c(N2CCC[C@H]2c2ccncc2)nc(C(=O)Nc2cnoc2)c(O)c1=O` [Example 103, (S)-5-hydroxy-N-(isoxazol-4-yl)-1-methyl-6-oxo-2-(2-(pyridin-4-yl)pyrrolidin-1-yl)-1,6-dihydropyrimidine-4-carboxamide] the same measures were 10000 to 100000 nM and 100 to 1000 nM.
For `Cn1c([C@H]2CCCCN2CCO)nc(C(=O)Nc2cnoc2)c(O)c1=O` [Example 104, (R)-5-hydroxy-2-(1-(2-hydroxyethyl)piperidin-2-yl)-N-(isoxazol-4-yl)-1-methyl-6-oxo-1,6-dihydropyrimidine-4-carboxamide] the same measures were over 100000 nM and 1000 to 10000 nM.
Take `Cn1c(N2CCCC[C@H]2CCO)nc(C(=O)Nc2cnoc2)c(O)c1=O` [Example 106, (S)-5-hydroxy-2-(2-(2-hydroxyethyl)piperidin-1-yl)-N-(isoxazol-4-yl)-1-methyl-6-oxo-1,6-dihydropyrimidine-4-carboxamide]: the half-inhibitory concentration (IC50) in test [1] lay within 10000 to 100000 nM; in test [2] it was 100 to 1000 nM.
`Cn1c(N2CCCC[C@@H]2CCO)nc(C(=O)Nc2cnoc2)c(O)c1=O` [Example 107, (R)-5-hydroxy-2-(2-(2-hydroxyethyl)piperidin-1-yl)-N-(isoxazol-4-yl)-1-methyl-6-oxo-1,6-dihydropyrimidine-4-carboxamide]: the values for the IC50 in test [1] and in test [2] were 1000 to 10000 nM and under 100 nM, respectively.
For `Cn1c(N2CC[C@H](c3ccccc3)C2)nc(C(=O)Nc2cnoc2)c(O)c1=O` [Example 108, (R)-5-hydroxy-N-(isoxazol-4-yl)-1-methyl-6-oxo-2-(3-phenylpyrrolidin-1-yl)-1,6-dihydropyrimidine-4-carboxamide] the same measures were 10000 to 100000 nM and under 100 nM.
For the compound `Cn1c(N2CC[C@@H](c3ccccc3)C2)nc(C(=O)Nc2cnoc2)c(O)c1=O` [Example 109, (S)-5-hydroxy-N-(isoxazol-4-yl)-1-methyl-6-oxo-2-(3-phenylpyrrolidin-1-yl)-1,6-dihydropyrimidine-4-carboxamide], the values for the IC50 in test [1] and in test [2] were 10000 to 100000 nM and under 100 nM, respectively.
For `CN(C)C(=O)[C@H]1CCCN1c1nc(C(=O)Nc2cnoc2)c(O)c(=O)n1C` [Example 110, (R)-2-(2-(dimethylcarbamoyl)pyrrolidin-1-yl)-5-hydroxy-N-(isoxazol-4-yl)-1-methyl-6-oxo-1,6-dihydropyrimidine-4-carboxamide] the same measures were 10000 to 100000 nM and 100 to 1000 nM.
For `CC(=O)N1CCCN(c2nc(C(=O)Nc3cnoc3)c(O)c(=O)n2C)CC1` [Example 111, 2-(4-acetyl-1,4-diazepan-1-yl)-5-hydroxy-N-(isoxazol-4-yl)-1-methyl-6-oxo-1,6-dihydropyrimidine-4-carboxamide] the same measures were 10000 to 100000 nM and 100 to 1000 nM.
Take `Cn1c(N2CCC[C@H]2c2ccccc2)nc(C(=O)Nc2cnoc2)c(O)c1=O` [Example 112, (S)-5-hydroxy-N-(isoxazol-4-yl)-1-methyl-6-oxo-2-(2-phenylpyrrolidin-1-yl)-1,6-dihydropyrimidine-4-carboxamide]: the values for the 50% inhibitory concentration (IC50) in test [1] and in test [2] were 1000 to 10000 nM and under 100 nM, respectively.
For `Cn1c(N2CCC[C@@H]2c2ccccc2)nc(C(=O)Nc2cnoc2)c(O)c1=O` [Example 113, (R)-5-hydroxy-N-(isoxazol-4-yl)-1-methyl-6-oxo-2-(2-phenylpyrrolidin-1-yl)-1,6-dihydropyrimidine-4-carboxamide] the same measures were 1000 to 10000 nM and under 100 nM.
`CC(=O)N1CCN(c2nc(C(=O)Nc3cnoc3)c(O)c(=O)n2C)CC1` [Example 116, 2-(4-acetylpiperazin-1-yl)-5-hydroxy-N-(isoxazol-4-yl)-1-methyl-6-oxo-1,6-dihydropyrimidine-4-carboxamide]: the values for the IC50 in test [1] and in test [2] were 10000 to 100000 nM and 100 to 1000 nM, respectively.
`Cn1c(N2CC[C@H](C(N)=O)C2)nc(C(=O)Nc2cnoc2)c(O)c1=O` [Example 117, (S)-2-(3-carbamoylpyrrolidin-1-yl)-5-hydroxy-N-(isoxazol-4-yl)-1-methyl-6-oxo-1,6-dihydropyrimidine-4-carboxamide]: the IC50 in test [1] was 10000 to 100000 nM; in test [2], 100 to 1000 nM.
Take `Cn1c(N2CC[C@@H](C(N)=O)C2)nc(C(=O)Nc2cnoc2)c(O)c1=O` [Example 118, (R)-2-(3-carbamoylpyrrolidin-1-yl)-5-hydroxy-N-(isoxazol-4-yl)-1-methyl-6-oxo-1,6-dihydropyrimidine-4-carboxamide]: the values for the 50% inhibitory concentration (IC50) in test [1] and in test [2] were 10000 to 100000 nM and under 100 nM, respectively.
For `Cn1c(N2CCC[C@H](C(N)=O)C2)nc(C(=O)Nc2cnoc2)c(O)c1=O` [Example 119, (S)-2-(3-carbamoylpiperidin-1-yl)-5-hydroxy-N-(isoxazol-4-yl)-1-methyl-6-oxo-1,6-dihydropyrimidine-4-carboxamide] the same measures were 10000 to 100000 nM and 100 to 1000 nM.
For `Cn1c(Oc2ccccc2)nc(C(=O)Nc2cnoc2)c(O)c1=O` [Example 120, 5-hydroxy-N-(isoxazol-4-yl)-1-methyl-6-oxo-2-phenoxy-1,6-dihydropyrimidine-4-carboxamide] the same measures were 1000 to 10000 nM and under 100 nM.
For `Cn1c(OC2CCCCC2)nc(C(=O)Nc2cnoc2)c(O)c1=O` [Example 121, 2-(cyclohexyloxy)-5-hydroxy-N-(isoxazol-4-yl)-1-methyl-6-oxo-1,6-dihydropyrimidine-4-carboxamide] the same measures were 1000 to 10000 nM and under 100 nM.
Consider `Cn1c(N2CC(Oc3ccccc3)C2)nc(C(=O)Nc2cnoc2)c(O)c1=O` [Example 122, 5-hydroxy-N-(isoxazol-4-yl)-1-methyl-6-oxo-2-(3-phenoxyazetidin-1-yl)-1,6-dihydropyrimidine-4-carboxamide], for which the IC50 in test [1] lay within 10000 to 100000 nM; in test [2], 100 to 1000 nM.
Regarding `Cn1c(N2CC(OCc3ccccc3)C2)nc(C(=O)Nc2cnoc2)c(O)c1=O` [Example 123, 2-(3-(benzyloxy)azetidin-1-yl)-5-hydroxy-N-(isoxazol-4-yl)-1-methyl-6-oxo-1,6-dihydropyrimidine-4-carboxamide], the half-inhibitory concentration (IC50) in test [1] lay in the range of 10000 to 100000 nM; in test [2], 100 to 1000 nM.
In the case of `Cn1c(N2CCC[C@@H]2c2ccccc2Cl)nc(C(=O)Nc2cnoc2)c(O)c1=O` [Example 124, (R)-2-(2-(2-chlorophenyl)pyrrolidin-1-yl)-5-hydroxy-N-(isoxazol-4-yl)-1-methyl-6-oxo-1,6-dihydropyrimidine-4-carboxamide], the IC50 in test [1] is 1000 to 10000 nM; in test [2] it was under 100 nM.

As a reminder, the IC50 is the point on the concentration scale where inhibition reaches its midpoint. A lower IC50 goes with inhibition by little substance.
